Our source for the Ki values is US8232406B2, “c-MET protein kinase inhibitors” (Vertex Pharmaceuticals Incorporated, priority 2006, dated 2012).

In this assay the target is c-MET (Homo sapiens, UniProt P08581). The experiment in a line: Ki determination for the inhibition of c-MET (standard radiometric 33P-ATP kinase assay, polyE4Y substrate). Type of assay: biochemical. The conditions noted are these: 1.0 nM c-Met, 35 μM ATP, 0.5 mg/mL polyE4Y, 20 min; competitive tight-binding fit. In a few lines: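 Radiometric assay of 33P transfer from 33P-ATP (35 μM) to polyE4Y (0.5 mg/mL) by 1.0 nM c-Met in 100 mM HEPES pH 7.5, 10 mM MgCl2, 25 mM NaCl, 0.01% BSA, 1 mM DTT. TCA-quenched after 20 min, filter-captured, scintillation-counted; Ki fitted to a competitive tight-binding model.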
c-MET, sequence (P08581 25-1390): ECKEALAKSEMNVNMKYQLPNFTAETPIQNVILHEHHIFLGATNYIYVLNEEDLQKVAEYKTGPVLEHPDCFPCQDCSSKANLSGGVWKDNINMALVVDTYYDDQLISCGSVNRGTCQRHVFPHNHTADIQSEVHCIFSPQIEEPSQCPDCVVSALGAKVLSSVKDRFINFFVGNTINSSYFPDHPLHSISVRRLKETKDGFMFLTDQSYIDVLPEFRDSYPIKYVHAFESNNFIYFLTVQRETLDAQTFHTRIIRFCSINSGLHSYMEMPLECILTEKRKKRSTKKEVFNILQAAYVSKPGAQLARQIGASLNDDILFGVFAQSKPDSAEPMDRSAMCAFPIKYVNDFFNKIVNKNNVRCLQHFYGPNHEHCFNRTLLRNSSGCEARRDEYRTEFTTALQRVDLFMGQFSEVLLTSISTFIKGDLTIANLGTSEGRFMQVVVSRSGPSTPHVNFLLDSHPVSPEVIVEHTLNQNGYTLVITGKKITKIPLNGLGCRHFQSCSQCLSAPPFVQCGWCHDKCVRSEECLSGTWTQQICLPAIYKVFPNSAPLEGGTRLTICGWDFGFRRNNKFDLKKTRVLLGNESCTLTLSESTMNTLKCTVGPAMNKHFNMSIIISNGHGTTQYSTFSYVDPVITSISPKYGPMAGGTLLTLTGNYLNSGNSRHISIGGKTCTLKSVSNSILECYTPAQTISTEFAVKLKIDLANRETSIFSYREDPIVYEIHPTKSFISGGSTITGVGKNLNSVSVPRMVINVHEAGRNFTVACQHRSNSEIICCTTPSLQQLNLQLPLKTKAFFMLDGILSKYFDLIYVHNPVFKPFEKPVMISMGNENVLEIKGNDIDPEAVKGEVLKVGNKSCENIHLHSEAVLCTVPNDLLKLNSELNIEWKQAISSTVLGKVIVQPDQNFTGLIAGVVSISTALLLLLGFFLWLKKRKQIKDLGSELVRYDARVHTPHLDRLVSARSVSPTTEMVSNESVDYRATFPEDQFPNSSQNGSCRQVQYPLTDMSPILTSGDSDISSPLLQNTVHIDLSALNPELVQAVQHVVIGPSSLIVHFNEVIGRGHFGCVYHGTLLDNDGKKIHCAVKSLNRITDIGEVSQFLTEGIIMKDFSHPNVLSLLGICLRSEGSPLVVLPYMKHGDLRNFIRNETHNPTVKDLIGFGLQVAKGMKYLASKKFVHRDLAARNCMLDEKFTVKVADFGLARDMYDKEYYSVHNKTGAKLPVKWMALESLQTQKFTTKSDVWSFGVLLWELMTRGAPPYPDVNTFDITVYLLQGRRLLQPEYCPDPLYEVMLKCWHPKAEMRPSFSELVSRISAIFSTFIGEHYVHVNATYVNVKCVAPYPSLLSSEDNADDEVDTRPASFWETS
For orientation: Ki means a measure of affinity in units of concentration, obtained from inhibition or displacement. Read a high Ki as a looser hold on the target. Regarding `Nc1ncc(-c2ccc3ncccc3c2)cc1-c1nnnn1-c1cccc(F)c1F` [I-A-321], the Ki is at most 100 nM.

Compound `Nc1ncc(-c2cccc(C(=O)N3CCOCC3)c2)cc1-c1nnnn1-c1cccc(F)c1F` [I-A-320] displayed a Ki of 100 to 1000 nM.

As to `CC(=O)Nc1ccc(-c2cnc(N)c(-c3nc4cnccc4n3-c3cccc(F)c3F)c2)cc1` [I-D-13], the Ki is at most 100 nM.

`Nc1ncc(-c2cccc(O)c2)cc1-c1nnnn1-c1cccc(F)c1F` [I-A-247] came in with an inhibition constant (Ki) of at most 100 nM.

Take `Cn1cc(-c2cccc(Cl)c2Cl)c(-c2cc(-c3cccnc3)cnc2N)n1` [I-B-16]: the Ki lay in the range of 100 to 1000 nM.

Compound `Nc1ncc(-c2ccc(N3CC(=O)NC3=O)cc2)cc1-c1nnnn1-c1cccc(F)c1F` [I-A-256] had a Ki of at most 100 nM.

The compound `CC(C)CN(C)Cc1ccc(-c2cnc(N)c(-c3nnnn3-c3cccc(F)c3F)c2)cc1` [I-A-150] displayed a Ki of at most 100 nM.

Compound `CN1CCN(Cc2ccc(-c3cnc(N)c(-c4nc5cnccc5n4-c4cccc(F)c4F)c3)cc2)CC1` [I-D-5] gave a Ki of at most 100 nM.

`Nc1ncc(-c2ccc(CN3CCCC3)cc2)cc1-c1nnnn1-c1cccc(F)c1Cl` [I-A-386] registered a Ki of 100 to 1000 nM.

Regarding `CN(C)Cc1ccc(-c2cnc(N)c(-c3nn(CCO)cc3-c3cccc(Cl)c3Cl)c2)cc1` [I-B-14], the Ki was in the range of 100 to 1000 nM.

`Nc1ncc(-c2cnn(C3CCNCC3)c2)cc1-c1nc2cc(F)ccc2n1-c1cccc(Cl)c1F` [I-D-19] came in with a Ki of at most 100 nM.

Regarding `CC(C)(C)CC(=O)Nc1ccc(-c2cnc(N)c(-c3nnnn3-c3cccc(F)c3F)c2)cc1` [I-A-199], the Ki is at most 100 nM.

For `CN(C(=O)Nc1cccc(-c2cnc(N)c(-c3nnnn3-c3cccc(F)c3F)c2)c1)c1ccccc1` [I-A-274], the Ki is 100 to 1000 nM.

With `Nc1ncc(-c2cnn([C@@H]3CCNC3)c2)cc1-c1nnnn1-c1cccc(F)c1F` [I-A-404], the Ki was at most 100 nM.

In the case of `Nc1ncc(-c2cccnc2)cc1-c1nnnn1-c1cc(Cl)ccc1F` [I-A-554], the Ki lay within 100 to 1000 nM.

Compound `Nc1ncc(-c2cnn(C3CCN(CC4CCCC4)CC3)c2)cc1-c1nnnn1-c1cccc(Cl)c1F` [I-A-474] gave an inhibition constant (Ki) of at most 100 nM.

As to `C[C@@H](N)c1ccc(-c2cnc(N)c(-c3nnnn3-c3cccc(F)c3F)c2)cc1` [I-A-153], the inhibition constant (Ki) is at most 100 nM.

Regarding `Nc1ncc(-c2ccc(CN3CCCC3)cc2)cc1-c1nnnn1-c1cc(Cl)ccc1F` [I-A-595], the Ki is 100 to 1000 nM.

For `Nc1ncc(-c2ccc(CN3CCCCC3)cc2)cc1-c1nnnn1-c1cccc(F)c1F` [I-A-134], the Ki was at most 100 nM.

Compound `Nc1ncc(-c2cccc(NC(=O)NC3CCCCO3)c2)cc1-c1nnnn1-c1cccc(F)c1F` (stereo not drawn) [I-A-273] returned a Ki of at most 100 nM.

Compound `NC(=O)[C@@H]1CCCN1Cc1ccc(-c2cnc(N)c(-c3nnnn3-c3cccc(Cl)c3Cl)c2)cc1` [I-A-121] came in with a Ki of at most 100 nM.

`Nc1ncc(-c2cnn(C3CNC3)c2)cc1-c1nnnn1-c1cccc(Cl)c1Cl` [I-A-427] had a Ki of at most 100 nM.

Compound `Nc1ncc(-c2ccc(CN3CC[C@H](O)C3)cc2)cc1-c1nnnn1-c1cccc(Cl)c1Cl` [I-A-120] returned a Ki of at most 100 nM.

The compound `CN(C)CCCN(C)S(=O)(=O)c1ccc(-c2cnc(N)c(-c3nnnn3-c3cccc(F)c3F)c2)cc1` [I-A-159] registered a Ki of at most 100 nM.

In turn, `Nc1ncc(-c2cnn(C3CCCNCC3)c2)nc1-c1nnnn1-c1cccc(F)c1F` (stereo not drawn) [I-A-656] showed a Ki of at most 100 nM.

In turn, `Nc1ncc(-c2ccncc2)nc1-c1nncn1-c1cccc(F)c1F` [I-A-3] came in with a Ki of 100 to 1000 nM.

Consider `Nc1ncc(-c2ccc(OCCN3CCCC3)cc2)cc1-c1nnnn1-c1cccc(F)c1F` [I-A-346], for which the Ki is at most 100 nM.

`CC(C)Oc1ccc(-c2cnc(N)c(-c3nnnn3-c3cccc(F)c3F)c2)cc1` [I-A-240]: the Ki fell in the range of 100 to 1000 nM.

In turn, `COCCN1CCC(n2cc(-c3cnc(N)c(-c4nnnn4-c4cccc(Cl)c4F)c3)cn2)CC1` [I-A-477] gave a Ki of at most 100 nM.

In the case of `Nc1ncc(-c2cccc(NC(=O)Nc3cccs3)c2)cc1-c1nnnn1-c1cccc(F)c1F` [I-A-275], the Ki lay within 100 to 1000 nM.
